{"source": "patent US20110301078A1", "about": "“PREVENTION OF BACTERIAL GROWTH AND BIOFILM FORMATION BY LIGANDS THAT ACT ON CANNABINOIDERGIC SYSTEMS” (priority 2008, published 2011)", "key": {"MRSA bacteria": {"tested_on": "MRSA bacteria", "experiment": "MRSA bacterial growth and biofilm formation in broth tubes, crystal violet stain (Example 1, FIG. 2)", "type": "cell-based, Methicillin-resistant Staphylococcus aureus", "conditions": "about 5000 CFU/mL, 16-20 hours, 2 mL broth, 35±2° C., CP55,940 and LEA at 30 μm; for MRSA biofilm formation: crystal violet, qualitative", "description": "(§1) The broth inoculum was prepared from 18-24 hours old colonies grown on standard agar plates. Approximately four of the fresh colonies were swiped with a sterile cotton Q-tip and then suspended in saline by immersion and light swirling. The turbidity was adjusted to equal that of a 0.5 McFarland turbidity standard using a spectrophotometer (600 nm). The amount corresponded to about 1.5×10^8 CFU/mL, where CFU stands for colony-forming units, and is equivalent to an absorbance at 600 nm equal to 0.132 or a percentage transmission equal to 74.3. […] Sterile 4 mL polystyrene tubes (12×75 mm) with caps were used for this purpose.\nMRSA bacteria (about 5000 CFU/mL) were allowed to grow for 16-20 hours in 2 mL broth at 35±2° C. in the presence or absence of various experimental compounds or antibiotics. The amount of biofilm was visualized qualitatively after being stained with crystal violet. Biofilm attached to the side of the tube was stained purple. The compounds CP55,940, LEA, and capsaicin were all tested at 30 μm. In the negative control, no compounds were added. The vehicle controls were made up of the appropriate dilution of the different solvent used to dissolve the experimental compounds, including methanol (MeOH), ethanol (EtOH) or dimethylsulfoxide (DMSO). The experimental compounds tested included CP55,940, noladin ether, O-2050, and linoleyl ethanolamide. High concentrations of the antibiotics zeocin and ampicillin served as positive antimicrobial controls. […] The no bacteria group contained only media and no bacteria, and served as another control."}, "[1]": {"tested_on": "gram-positive bacteria, including Streptococcus agalactiae, Enterococcus faecalis, Staphylococcus epidermidis, and prominent MRSA strains", "experiment": "Growth and biofilm formation of gram-positive strains, crystal violet stain quantified at 600 nm (Example 2, FIG. 3)", "type": "cell-based", "conditions": "30 μM, overnight, 35±2° C.; for growth of gram-positive bacteria, including MRSA: 2 mL broth; for biofilm formation of gram-positive bacteria, including MRSA: crystal violet stain solubilized, 600 nm", "description": "as §1, with “efficacy of the compounds were again tested against different strains of gram-positive bacteria, including Streptococcus agalactiae, Enterococcus faecalis, Staphylococcus epidermidis, and prominent MRSA (hospital-acquired and community-acquired) strains. Broth” for “broth”\nThe bacteria were allowed to incubate overnight in 2 mL broth at 35±2° C. in the presence or absence of various experimental compounds or antibiotics. The amount of biofilm was visualized qualitatively, then stained with crystal violet. Biofilm attached to the side of the tube was stained purple. After staining, the tubes were decanted and rinsed, leaving stained biofilm adhering to the tubes. Next, the stain was solubilized and mixed with ethanol (EtOH) or dimethylsulfoxide (DMSO). The turbidity of the so lubilized stain, or lack thereof, was then quantified in a spectrophotometer (600 nm). In the broth only sample, no bacteria were added. In the negative controls, no compounds were added. The vehicle controls were made up of the appropriate dilution of the different solvent used to dissolve the experimental compounds, including ethanol (EtOH) or dimethylsulfoxide (DMSO). The experimental compounds tested included 30 μM of CP55,940, 30 μM of O-2050, 30 μM of linoleyl ethanolamide, 30 μM of no ladin ether, and 30 μM of anandamide (natural product 2). High concentrations of silver nitrate (1000 μM) and vancomycin (50 μg/mL) served as positive antimicrobial controls."}, "mammalian CB1 receptors": {"biological_target": "mammalian CB1 receptors (Homo sapiens, UniProt P21554)", "sequence (P21554 whole entry)": "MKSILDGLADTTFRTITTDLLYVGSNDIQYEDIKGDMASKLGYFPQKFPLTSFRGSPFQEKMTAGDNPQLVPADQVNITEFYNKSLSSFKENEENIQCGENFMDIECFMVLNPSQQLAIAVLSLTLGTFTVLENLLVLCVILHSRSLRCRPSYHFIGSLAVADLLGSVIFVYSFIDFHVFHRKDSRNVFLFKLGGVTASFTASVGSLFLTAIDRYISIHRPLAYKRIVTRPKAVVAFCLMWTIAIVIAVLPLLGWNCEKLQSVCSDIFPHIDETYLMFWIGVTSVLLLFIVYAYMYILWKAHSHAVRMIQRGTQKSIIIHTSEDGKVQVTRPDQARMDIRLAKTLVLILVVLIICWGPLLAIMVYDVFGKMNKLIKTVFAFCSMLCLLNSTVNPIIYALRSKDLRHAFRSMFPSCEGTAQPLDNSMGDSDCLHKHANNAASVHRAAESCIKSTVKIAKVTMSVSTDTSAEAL", "conditions": "cited from earlier work"}, "mammalian CB2 receptors": {"biological_target": "mammalian CB2 receptors (Homo sapiens, UniProt P34972)", "sequence (P34972 whole entry)": "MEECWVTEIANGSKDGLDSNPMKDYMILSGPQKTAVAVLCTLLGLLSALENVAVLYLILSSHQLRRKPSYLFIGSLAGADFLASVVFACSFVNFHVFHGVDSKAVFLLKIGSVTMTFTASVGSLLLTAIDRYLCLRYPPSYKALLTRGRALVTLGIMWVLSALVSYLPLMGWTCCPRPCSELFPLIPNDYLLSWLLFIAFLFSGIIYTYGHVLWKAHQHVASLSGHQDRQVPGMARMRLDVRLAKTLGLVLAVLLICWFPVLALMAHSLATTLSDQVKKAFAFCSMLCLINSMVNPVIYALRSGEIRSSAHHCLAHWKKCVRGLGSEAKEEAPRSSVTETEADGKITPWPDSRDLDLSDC", "conditions": "cited from earlier work"}}, "data": [{"compound": "CC1=CC[C@@H]2[C@@H](C1)c1c(O)cc(CC#CCCCNS(C)(=O)=O)cc1OC2(C)C", "note": "[Compound O-2050]", "values": [{"measurement": "MRSA growth", "setting": "MRSA bacteria", "value": "prevent"}, {"measurement": "MRSA biofilm formation", "setting": "MRSA bacteria", "value": "prevent"}, {"measurement": "growth of gram-positive bacteria, including MRSA", "setting": "[1]", "value": "prevent"}, {"measurement": "biofilm formation of gram-positive bacteria, including MRSA", "setting": "[1]", "value": "prevent"}]}, {"compound": "CCCCC/C=C\\C/C=C\\C/C=C\\C/C=C\\CCCCOC(CO)CO", "note": "[noladin ether, 2-[(5Z,8Z,11Z,14Z)-eicosatetraenyloxy]-1,3-propanediol]", "values": [{"measurement": "MRSA growth", "setting": "MRSA bacteria", "value": "prevent"}, {"measurement": "MRSA biofilm formation", "setting": "MRSA bacteria", "value": "prevent"}]}, {"compound": "CCCCCCC(C)(C)c1ccc([C@@H]2C[C@H](O)CC[C@H]2CCCO)c(O)c1", "note": "[CP55,940, (−)-cis-3-[2-Hydroxy-4-(1,1-dimethylheptyl)phenyl]-tran s-4-(3-hydroxypropyl)cyclohexanol]", "values": [{"measurement": "MRSA growth", "setting": "MRSA bacteria", "value": "prevent"}, {"measurement": "MRSA biofilm formation", "setting": "MRSA bacteria", "value": "prevent"}, {"measurement": "growth of gram-positive bacteria, including MRSA", "setting": "[1]", "value": "prevent"}, {"measurement": "biofilm formation of gram-positive bacteria, including MRSA", "setting": "[1]", "value": "prevent"}, {"measurement": "affinity for CB1 receptor", "setting": "mammalian CB1 receptors", "value": "high affinity"}, {"measurement": "affinity for CB2 receptor", "setting": "mammalian CB2 receptors", "value": "high affinity"}]}, {"compound": "CCCCC/C=C\\C/C=C\\CCCCCCCC(=O)NCCO", "note": "[LEA, N-(2-hydroxyethyl)-9Z,12Z-octadecadienamide]", "values": [{"measurement": "MRSA growth", "setting": "MRSA bacteria", "value": "prevent"}, {"measurement": "MRSA biofilm formation", "setting": "MRSA bacteria", "value": "prevent"}, {"measurement": "growth of gram-positive bacteria, including MRSA", "setting": "[1]", "value": "prevent"}, {"measurement": "biofilm formation of gram-positive bacteria, including MRSA", "setting": "[1]", "value": "prevent"}, {"measurement": "affinity for CB1 receptor", "setting": "mammalian CB1 receptors", "value": "poor affinity"}, {"measurement": "affinity for CB2 receptor", "setting": "mammalian CB2 receptors", "value": "poor affinity"}]}, {"compound": "CN[C@H]1C[C@@H](N)[C@H](O)[C@@H](O[C@@H]2O[C@H](CO)[C@H](O)[C@@H]3OC4(O[C@H]23)O[C@H]([C@@H](N)CO)[C@H](O)[C@H](O)[C@H]4O)[C@@H]1O", "note": "(stereo partly shown) [Hydromycin B, reference compound]", "values": [{"measurement": "MRSA growth", "setting": "MRSA bacteria", "value": "Relatively ineffective"}]}]}
